Experimental findings from patent publication US20230381223A1, “ORAL PYROPHOSPHATE FOR USE IN REDUCING CALCIFICATION” (PYROGENYX INC., priority 2020, published 2023) are described below.

The subject of series [1] is Abcc6−/− mice. The note with it: female Abcc6−/− mice, oral, 10 mM in drinking water. The protocol:
Briefly, mice were kept under routine laboratory conditions with a 12-hour light-dark cycle and ad libitum access to water and chow. Anesthesia was carried out by intraperitoneal injection of the mixture of Zoletil (30 mg/kg, Virbac, France), Xylazine (12.5 mg/kg, Produlab Pharma, The Netherlands) and Butorphanol (3 mg/kg, Richterpharma, Austria) during all procedures.
In this experiment calcification was induced in the myocardium and five days after we determined the Ca^2+-content of the heart.

For series [2] the following is noted: healthy volunteers, oral, gelatin capsules, 39 mg pyrophosphate/kg. How it is done:
To avoid the unpleasant taste we used capsulated PPi salts instead of water-based solution as the form of delivery. We tested two different capsules: gelatin and cellulose. Subsequently, we determined how PPi is absorbed in individuals affected by PXE compared to its absorption in non-PXE volunteers.
Human studies were conducted in accordance with the Declaration of Helsinki. The oral uptake studies involving healthy human volunteers (female and male) were conducted and all patient samples were handled in an anonymized form. The oral uptake study involving PXE patients involved mutation analysis confirming the diagnosis in PXE patients. The diagnosis of PXE was based on characteristic skin findings, supported by characteristic histopathology, and ocular and vascular involvement.
Gelatin capsules were obtained from Molar Chemicals (Halasztelek, Hungary), cellulose capsules were obtained from Capsuline (Davie, Fla.).
Volunteers and PXE patients (after overnight fasting) were involved in the studies. The duration of ingestion was less than one minute. Blood samples were collected from the vena cubiti before ingestion (0 min) and after 30, 60, 120 and 240 min into CTAD anticoagulated tubes (BD, Franklin Lakes, N.J.), and filtered through Centrisart I 300,000 MWCO filters (Sartorius, Frankfurt, Germany). […]

On to `O=P([O-])([O-])OP(=O)(O)O.[Na+].[Na+]` [Na2H2P2O7, disodium pyrophosphate, reference compound], for which the “calcification of the heart (total Ca2+-content) five days after cryo-injury” value in series [1] is reported as “reduce calcification to the same extent”. Also, the GI discomfort entry in series [2] was “reduced to the minimum”.
As to `O=P([O-])([O-])OP(=O)(O)O.[K+].[K+]` [K2H2P2O7, Dipotassium Pyrophosphate], the “calcification of the heart (total Ca2+-content) five days after cryo-injury” value in series [1] is recorded as “reduce calcification to the same extent”.
